PMC10287695, “Non-covalent inhibitors of thioredoxin glutathione reductase with schistosomicidal activity in vivo” (Nature Communications, 2023)
Values joined by “and” are separate entries in the source; they are usually repeats but may differ in a detail not shown here. Equal values may be shown once.

How the values were obtained:
[1] = target: T1, Human GR (Homo sapiens, UniProt P00390); assay: Human GR enzyme inhibition (GSSG reduction, NADPH oxidation); assay type: biochemical; conditions: 66.7 µM
T1 construct: made in house
T1 sequence (P00390 44-522): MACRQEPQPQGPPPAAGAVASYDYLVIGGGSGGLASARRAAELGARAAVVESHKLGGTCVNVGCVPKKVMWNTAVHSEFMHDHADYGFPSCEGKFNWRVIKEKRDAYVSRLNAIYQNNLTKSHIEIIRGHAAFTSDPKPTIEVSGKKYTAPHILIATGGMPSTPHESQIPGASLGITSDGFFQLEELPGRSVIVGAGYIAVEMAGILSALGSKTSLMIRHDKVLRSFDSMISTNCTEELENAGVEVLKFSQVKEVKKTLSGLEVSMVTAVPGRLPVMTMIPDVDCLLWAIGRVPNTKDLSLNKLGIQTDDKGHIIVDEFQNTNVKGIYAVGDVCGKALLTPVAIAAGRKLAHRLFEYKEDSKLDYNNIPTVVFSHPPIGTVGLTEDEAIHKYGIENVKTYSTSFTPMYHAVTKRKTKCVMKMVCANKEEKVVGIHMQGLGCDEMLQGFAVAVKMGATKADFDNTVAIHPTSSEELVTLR
Protocol: Recombinant TGR, human TrxR1, B. malayi (Bm)TrxR and human GR proteins were expressed and purified as described[20],[69],[79]. The codon optimized sequence for P. falciparum (PfTrxR, https://www.ncbi.nlm.nih.gov/protein/CAA60574.1/) with an N-terminal 6-His tag was synthesized and inserted into pET15b (GenScript) and expressed in BL21 (DE3) cells and purified as described for human GR[20]. TGR and TrxR enzyme inhibition assays were performed in triplicate at 25 °C as described[20] in 0.1 M potassium phosphate (pH 7.4), 10 mM EDTA, 100 µM NADPH and 0.01% Tween-20. TGR, human TrxR1 and BmTrxR (all at 4 nM) and PfTrxR (50 nM) were preincubated with the compounds for 15 min. The reaction was started with addition of an equal volume of DTNB (6 mM) and NADPH (100 µM) and the increase in A412 during the first 3 min was recorded. […] […] Activity was initiated with the addition of 1 mM GSSG and 100 μM NADPH and initial rates of NADPH oxidation were monitored at 340 nm. The reactions were done in triplicate. The IC50 was calculated in GraphPad Prism.

[2] = test system: S. mansoni adult worms; assay: GSH/GSSG ratio in ex vivo adult worms; assay type: cell-based; conditions: 1 hr; second data set (r136-144), baseline 63.5617, DMSO 63.4928
Protocol: We assessed GSH/GSSG levels experimentally by treating S. mansoni adult worms with 50 µM of compounds, or respective controls 5 µM Auranofin, 50 µM PZQ or 50 µM MZM and 0.01% DMSO for 3 h. Worm homogenate was prepared by washing three times with PBS to remove residual compounds and ten volumes of ice cold 5% sulfosalicylic acid was added. Worms were manually homogenized on ice using VWR Pellet Mixer Adaptor. The worm suspension was centrifuged at 14000 × g, 4 °C for 10 min and the acid supernatants transferred. An equal volume of ice-cold neutralization buffer (500 mM HEPES, pH 8.0) was added to the acid supernatants.
GSH/GSSG assay was performed by diluting the acid supernatant (5-fold) with ice-cold dilution buffer (250 mM HEPES, pH 7.5). Using white opaque luminescence plate on ice, 25 µl of the diluted worm acid supernatant was added each well in triplicates. Total glutathione lysis reagent and GSSG lysis reagent, which contains alkylating agent N-ethylmaleimide (25 mM) were prepared following manufactures protocol and added to respective wells along with blank for background. Total glutathione lysis reagent or oxidized glutathione lysis reagent (25 µl) was added to respective wells containing worm acid supernatants and the plate was shaken for 5 min. Luciferin generation reagent (LGR) (50 µl) was added to all wells, briefly shaken and incubated at room temperature for 30 min. Luciferin detection reagent (LDR) (100 µl) was added to all wells, briefly shaken and incubated for 15 min at room temperature and the luminescence measured using microplate imager (BioTek Cytation3). GSH/GSSH ratio for DMSO control and compounds were calculated using (Net DMSO total glutathione RFU) – (Net DMSO GSSG RFU)/ (Net DMSO GSSG RFU)/2 and (Net inhibitor total glutathione RFU) – (Net inhibitor GSSG RFU)/ (Net inhibitor GSSG RFU)/2 respectively.

[3] = target: BmTrxR (Brugia malayi, UniProt A0A1I9G0T9); assay: B. malayi TrxR enzyme inhibition; assay type: biochemical
Sequence of BmTrxR (A0A1I9G0T9 entry or part of it, added parts left off): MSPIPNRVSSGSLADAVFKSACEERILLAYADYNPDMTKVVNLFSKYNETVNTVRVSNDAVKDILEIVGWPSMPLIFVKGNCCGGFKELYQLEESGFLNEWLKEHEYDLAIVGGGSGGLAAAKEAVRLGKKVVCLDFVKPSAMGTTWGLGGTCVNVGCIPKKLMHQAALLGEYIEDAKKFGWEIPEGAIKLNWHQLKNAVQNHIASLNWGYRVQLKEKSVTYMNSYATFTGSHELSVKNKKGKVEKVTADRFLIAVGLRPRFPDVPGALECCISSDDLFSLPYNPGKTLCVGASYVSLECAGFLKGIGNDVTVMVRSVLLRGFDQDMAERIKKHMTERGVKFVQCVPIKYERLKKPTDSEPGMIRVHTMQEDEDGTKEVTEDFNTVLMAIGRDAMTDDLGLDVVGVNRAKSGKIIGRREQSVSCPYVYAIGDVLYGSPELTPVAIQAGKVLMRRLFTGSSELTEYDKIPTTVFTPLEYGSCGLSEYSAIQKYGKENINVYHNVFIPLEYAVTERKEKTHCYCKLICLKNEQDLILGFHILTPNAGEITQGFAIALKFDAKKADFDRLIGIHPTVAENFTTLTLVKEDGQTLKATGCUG
Protocol: Recombinant TGR, human TrxR1, B. malayi (Bm)TrxR and human GR proteins were expressed and purified as described[20],[69],[79]. The codon optimized sequence for P. falciparum (PfTrxR, https://www.ncbi.nlm.nih.gov/protein/CAA60574.1/) with an N-terminal 6-His tag was synthesized and inserted into pET15b (GenScript) and expressed in BL21 (DE3) cells and purified as described for human GR[20]. […] The reaction was started with addition of an equal volume of DTNB (6 mM) and NADPH (100 µM) and the increase in A412 during the first 3 min was recorded. […] Activity was initiated with the addition of 1 mM GSSG and 100 μM NADPH and initial rates of NADPH oxidation were monitored at 340 nm. The reactions were done in triplicate. The IC50 was calculated in GraphPad Prism.

[4] = target: T2, PfTrxR (Plasmodium falciparum, UniProt Q25861); assay: P. falciparum TrxR enzyme inhibition; assay type: biochemical
T2 construct: 6-His (N); made in house; host or cells: E. coli BL21 (DE3)
T2 sequence (Q25861 1-541): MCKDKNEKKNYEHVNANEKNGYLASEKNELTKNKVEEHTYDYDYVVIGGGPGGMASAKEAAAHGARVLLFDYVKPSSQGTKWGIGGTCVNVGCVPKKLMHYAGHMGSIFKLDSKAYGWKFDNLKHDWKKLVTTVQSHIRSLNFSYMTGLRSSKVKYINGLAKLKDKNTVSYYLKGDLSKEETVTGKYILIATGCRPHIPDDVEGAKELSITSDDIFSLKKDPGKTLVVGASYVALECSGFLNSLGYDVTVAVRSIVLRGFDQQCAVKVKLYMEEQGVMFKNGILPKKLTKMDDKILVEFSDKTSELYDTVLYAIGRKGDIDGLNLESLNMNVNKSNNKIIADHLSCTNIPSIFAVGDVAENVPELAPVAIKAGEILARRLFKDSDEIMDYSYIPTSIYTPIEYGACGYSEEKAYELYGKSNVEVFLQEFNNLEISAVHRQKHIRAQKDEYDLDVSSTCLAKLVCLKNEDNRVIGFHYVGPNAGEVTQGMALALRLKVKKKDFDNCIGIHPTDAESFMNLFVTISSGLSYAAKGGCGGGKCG
Protocol: Recombinant TGR, human TrxR1, B. malayi (Bm)TrxR and human GR proteins were expressed and purified as described[20],[69],[79]. The codon optimized sequence for P. falciparum (PfTrxR, https://www.ncbi.nlm.nih.gov/protein/CAA60574.1/) with an N-terminal 6-His tag was synthesized and inserted into pET15b (GenScript) and expressed in BL21 (DE3) cells and purified as described for human GR[20]. TGR and TrxR enzyme inhibition assays were performed in triplicate at 25 °C as described[20] in 0.1 M potassium phosphate (pH 7.4), 10 mM EDTA, 100 µM NADPH and 0.01% Tween-20. TGR, human TrxR1 and BmTrxR (all at 4 nM) and PfTrxR (50 nM) were preincubated with the compounds for 15 min. The reaction was started with addition of an equal volume of DTNB (6 mM) and NADPH (100 µM) and the increase in A412 during the first 3 min was recorded. […] The reaction was preincubated for 15 min. Activity was initiated with the addition of 1 mM GSSG and 100 μM NADPH and initial rates of NADPH oxidation were monitored at 340 nm. The reactions were done in triplicate. The IC50 was calculated in GraphPad Prism.

[5] = target: T3, TGR (Schistosoma mansoni, UniProt Q962Y6, X597U); assay: NADPH consumption (oxidase activity); assay type: biochemical, S. mansoni
T3 construct: made in house
Protocol: TRi-1, Stattic (both at 50 µM) and AF (20 µM) were incubated with 1 ml of 500 nM TGR and 100 µM NADPH in TGR reaction buffer for 30 min. The samples were desalted using a Zeba spin desalting column (Thermo Fisher Scientific) and 100 µl of the desalted sample was combined with 100 µl of 100 µM NADPH. NADPH consumption was monitored at 340 nm in triplicate. Compounds 1, 4, 6, and 7 (50 µM) were tested in the same fashion without the desalting step and with a first incubation step of 30 min for 6 and 7 and 2 h for 1 and 4.

[6] = target: T4, TGR (Schistosoma mansoni, UniProt Q962Y6); assay: Reversibility by jump dilution; assay type: biochemical
T4 construct: made in house
T4 sequence (Q962Y6 1-598): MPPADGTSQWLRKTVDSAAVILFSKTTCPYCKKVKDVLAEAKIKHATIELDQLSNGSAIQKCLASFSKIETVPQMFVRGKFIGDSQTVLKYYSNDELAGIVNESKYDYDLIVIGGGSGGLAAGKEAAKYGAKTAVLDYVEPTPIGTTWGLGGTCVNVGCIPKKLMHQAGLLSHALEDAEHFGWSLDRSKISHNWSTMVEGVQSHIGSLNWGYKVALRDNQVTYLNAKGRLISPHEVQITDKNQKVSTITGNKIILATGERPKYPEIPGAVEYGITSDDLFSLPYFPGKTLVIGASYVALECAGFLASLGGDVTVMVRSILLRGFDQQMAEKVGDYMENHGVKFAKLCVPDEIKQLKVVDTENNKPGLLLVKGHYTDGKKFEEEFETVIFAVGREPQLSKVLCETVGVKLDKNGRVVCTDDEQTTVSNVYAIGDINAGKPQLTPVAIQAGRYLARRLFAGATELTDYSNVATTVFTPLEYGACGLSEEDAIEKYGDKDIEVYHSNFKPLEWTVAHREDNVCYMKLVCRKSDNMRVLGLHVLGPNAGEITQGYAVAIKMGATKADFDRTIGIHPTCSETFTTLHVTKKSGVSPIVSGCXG
Protocol: A reaction of 370 nM TGR, 100 µM NADPH, and 250 µM inhibitor was incubated for 15 min at room temperature. A 100x dilution of the reaction was made and the activity was determined immediately and after 60 min.

[7] = target: T3, TGR; assay: Superoxide production (pyrogallol red); assay type: biochemical, S. mansoni; conditions: replicates
Protocol: The production of superoxide by TGR was determined by monitoring reaction of superoxide with pyrogallol red[80]. Briefly, a 1 ml reaction mix (500 nM TGR, 100 µM NADPH, and 20–50 µM inhibitor) was incubated at room temperature for 30 min for fast inhibitors, or 2 h for slow inhibitors. For irreversible inhibitor controls TRi-1 (synthesized in house as reported[45]), Stattic (Cayman Chemical), and AF (Cayman Chemical), the samples were desalted using a Zeba spin desalting column. 100 µL of sample was combined with pyrogallol buffer with and without superoxide dismutase (SOD) (50 µM pyrogallol red, 300 µM NADPH; ± 10 units SOD). The reaction was measured at A340 and A540 simultaneously for 2 h.

[8] = D0: diluted 1:100, activity determined immediately, list for plotting
[9] = D60: diluted 1:100, activity determined after 60 min, list for plotting

## C[C@@H]1[C@H]2C[C@@H](C[C@H]1NC(=O)Cc1nc3ccccc3n1C1CCCCC1)C2(C)C [Compound 10]
[1]
  Human GR (inhibition at 66.7 µM): n.i.
[2]
  Ratio GSH/GSSG: 63.3816
[3]; BmTrxR, 1 µM compound, mean of 3 replicates
  inhibition at 1 µM: 27.9%
[3]; BmTrxR, 5 µM compound, mean of 3 replicates
  inhibition at 5 µM: 68%
[3]; BmTrxR, 15 µM compound, mean of 3 replicates
  inhibition at 15 µM: 100%
[3]; BmTrxR, 30 µM compound, mean of 3 replicates
  inhibition at 30 µM: 108%
[3]; BmTrxR, 66.7 µM compound, mean of 3 replicates
  inhibition at 66.7 µM: 106%
[3]; read-out: BmTrxR IC50
  IC50: 2.5 µM
[4]
  IC50: 32.9 ± 4.46 µM
  inhibition at 1 µM: 3.2%
  inhibition at 5 µM: 6.15%
  inhibition at 15 µM: 29.7%
  inhibition at 30 µM: 48.5%
  inhibition at 66.7 µM: 66.9%

## O=[N+]([O-])c1ccc2c(c1)S(=O)(=O)C=C2 [Stattic, reference compound]
[5]
  NADPH consumption by TGR after exposure: converted TGR to a pro-oxidant enzyme
[5]; replicates
  NADPH consumption (rate/ΔOD340): -0.002179 and -0.002159 and -0.002209
[6]; 250 µM inhibitor, 100-fold jump dilution
  reversibility of TGR inhibition: irreversible
[6]; [8]
  % Activity (ID list), D0: 1.1% and 0.9% and -0.249%
  % Inhibition (ID list), D0: 98.9% and 99.1% and 100.2%
[6]; [9]
  % Activity (ID list), D60: -0.15% and 2.9% and 1.8%
  % Inhibition (ID list), D60: 100.1% and 97.1% and 98.2%
[6]; [0, D0]: 15 min preincubation inhibitor + TGR + NADPH, diluted 1:100, then activity determined immediately, relative to DMSO
  % Activity, 0 min: 1.12% and 0.8821% and -0.2494%
[6]; [60, D60]: 15 min preincubation inhibitor + TGR + NADPH, diluted 1:100, then activity determined after 60 min, relative to DMSO
  % Activity, 60 min: -0.1498% and 2.864% and 1.829%
[6]; [-15]: 15 min preincubation inhibitor + TGR + NADPH, then activity determined, raw rate, replicates
  Inhibitor (rate), -15: 0.0007 and 0.0003 and -0.0004
[6]; [-15]: 15 min preincubation inhibitor + TGR + NADPH, then activity determined, relative to DMSO, replicates
  % Activity, -15: 1.077% and 0.4412% and -0.5874%
[6]; before dilution (-15), list for plotting
  % Inhibition (ID list): 100.5% and 100.0% and 98.7%
[7]; condition not given
  Superoxide production, Pyrogallol red consumption monitored ΔA540: -0.005958 and -0.005844 and -0.006065
[7]; second of the two columns per substance (condition not given)
  Superoxide production, Pyrogallol red consumption monitored ΔA540: -6.328e-5 and -6.968e-5 and -6.397e-5
